Assay results as given in ChEMBL document CHEMBL4261654, “Synthesis and in vitro antitumor activity of novel alkenyl derivatives of pyridoxine, bioisosteric analogs of feruloyl methane” (Bioorg Med Chem, 2018).
Active and inactive are the calls of the source. The rule behind the calls is not given here.

Assays:
[1] = Antioxidant activity assessed as ferric ion reducing activity at 20 to 320 umol after 20 mins by FRAP assay; assay type: functional
MCF7 = test: Antiproliferative activity against human MCF7 cells after 72 hrs by MTT assay; assay type: functional, cell-based; conditions: MCF7, 72 h
HEK293 = test: Antiproliferative activity against human HEK293 cells after 72 hrs by MTT assay; assay type: cell-based; conditions: HEK293, 72 h

Row | SMILES | Activity [1] | IC50 (MCF7) | IC50 (HEK293)
1 | O=c1c(O)c(-c2ccc(O)c(O)c2)oc2cc(O)cc(O)c12 | Active |  | 
2 | CCCC1OCc2c(/C=C/C(C)=O)cnc(C)c2O1 (centres undefined) |  | 2.2 µM | 2.9 µM
3 | CC(=O)/C=C/c1cnc(C)c(O)c1CO |  | 398 µM | 121 µM
4 | CC(=O)/C=C/c1cnc(C)c2c1COC1(CCCC1)O2 |  | 7.2 µM | 17 µM
5 | CC(=O)/C=C/c1cnc(C)c2c1COC(C(C)(C)C)O2 (centres undefined) |  | 4.1 µM | 1.2 µM
6 | COc1cc(/C=C/C(=O)CC(=O)/C=C/c2ccc(O)c(OC)c2)ccc1O | Active |  | 
7 | CC(=O)/C=C/c1cnc(C)c2c1COC(C)(C)O2 |  | 6.6 µM | 17 µM
8 | CCCC1OCc2c(/C=C/C(C)=O)nc(C)c(O)c2CO1 (centres undefined) |  | 4.6 µM | 13 µM
